Laboratory results: patent US20140350064A1, “PHARMACEUTICAL COMPOSITION COMPRISING AN AMPK ACTIVATOR AND A SEROTONERGIC AGENT AND METHODS OF USE THEREOF” (priority 2013, published 2014)

What was measured:
Type in all cases: in vivo, Sprague-Dawley rat
[1] = Overnight food intake in Sprague-Dawley rats during dosing; details: daily overnight food intake, 65 days of treatment, n=10
Method: (§1) Male Sprague-Dawley rats were used with average body weight 223 g. The rats were fed with standard chow.
(§2) Before grouping, all animals were weighed at fasting state for 5 consecutive days. The first dose of the drug as indicated in Table 1 was administered on the next day after grouping; the dose was administered by gavage (t.i.d.) in a solution dose of […] body weight, and continued for a total of 65 days. Initially, each rat was treated accordingly with 0.25 mL drug solution; the dosage was then adjusted according to the body weight change of each rat, by increasing the dose by 0.05 mL for each 50 g body weight increment.
(§3) Groups were fed overnight with 30 g chowrat after drug administration and food deprived during daytime. Overnight food intake was measured every morning, while fasting body weight was measured every Tuesday and Friday night.
(§4) Statistical analysis was performed with SPSS software (IBM). One-way ANOVA was performed.

[2] = Fat mass of Sprague-Dawley rats after 65 days' treatment; details: for Fat Mass: average total fat mass after 65 days, n=10
Method: as §1, §2, §4

[3] = Weight gain inhibition in Sprague-Dawley rats, 65 days' treatment
Method: as §1, §2, §3, §4

[4] = after 65 consecutive days of treatment

Compound: CC(C)CC(N(C)C)C1(c2ccc(Cl)cc2)CCC1 (centres unmarked) [SIB, sibutramine]
- Average Food Intake During Dosing [1]: 29.4 ± 0.9 g
- Average Food Intake During Dosing ([1]; listed as sibutramine): 29.4 g
- Effect on fat mass [2, 4]: reduced fat mass
- Fat Mass [2]: 25.5 ± 6.3 g
- Fat Mass ([2]; listed as sibutramine): 25.5 g
- Effect on body weight gain [3, 4]: decreased body weight gain
- Post-Dose body weight ([3]; male Sprague-Dawley rats, gavage t.i.d., 65 days, fasting body weight, n=10): 493.8 ± 13.0 g
- ΔBW (increase of body weight) ([3]; male Sprague-Dawley rats, gavage t.i.d., 65 days, n=10): 270.7 ± 11.6 g
- ΔBW (increase of body weight) ([3]; male Sprague-Dawley rats, gavage t.i.d., 65 days, n=10, listed as sibutramine): 270.7 g
- Relative Body Weight ([3]; vs. GS control group, 65 days, n=10): -22.0 g
- Weight Loss Ratio ([3]; vs. GS control group, 65 days, n=10, listed as sibutramine): 4.3%
